Experimental data published in paper PMC3034713, “Targeting Vascular NADPH Oxidase 1 Blocks Tumor Angiogenesis through a PPARα Mediated Mechanism” (PLoS ONE, 2011).

Columns and labels:
NOX1 = target: T1, NOX1 (Homo sapiens, UniProt Q9Y5S8); assay: NOX inhibition in cell free assay, membranes from cells overexpressing NOX1 (Amplex Red ROS); assay type: biochemical
T1 construct: expressed in transfected cells
T1 sequence (Q9Y5S8 1-564): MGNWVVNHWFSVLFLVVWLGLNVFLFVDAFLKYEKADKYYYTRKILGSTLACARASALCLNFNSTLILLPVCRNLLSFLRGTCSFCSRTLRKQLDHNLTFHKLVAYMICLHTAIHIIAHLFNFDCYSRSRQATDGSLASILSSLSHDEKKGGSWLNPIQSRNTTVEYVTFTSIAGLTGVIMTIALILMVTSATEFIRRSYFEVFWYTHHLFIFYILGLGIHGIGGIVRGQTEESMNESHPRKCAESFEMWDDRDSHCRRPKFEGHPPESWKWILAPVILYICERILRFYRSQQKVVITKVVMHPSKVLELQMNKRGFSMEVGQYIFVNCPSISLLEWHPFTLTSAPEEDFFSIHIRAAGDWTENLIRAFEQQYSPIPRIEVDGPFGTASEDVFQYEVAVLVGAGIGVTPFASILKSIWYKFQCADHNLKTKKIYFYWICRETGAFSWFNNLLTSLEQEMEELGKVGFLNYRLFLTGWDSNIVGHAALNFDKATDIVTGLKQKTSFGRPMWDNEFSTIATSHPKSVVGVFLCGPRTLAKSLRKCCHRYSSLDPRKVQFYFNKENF
T1 sequence (P13498 2-195 partner limits assumed): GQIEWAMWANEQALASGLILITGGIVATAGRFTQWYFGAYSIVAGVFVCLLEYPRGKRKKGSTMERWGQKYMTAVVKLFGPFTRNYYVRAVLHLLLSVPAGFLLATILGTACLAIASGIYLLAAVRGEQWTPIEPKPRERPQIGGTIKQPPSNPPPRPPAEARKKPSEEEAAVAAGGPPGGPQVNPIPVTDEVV
Procedure: Membranes from NOX2 expressing PMN cells or from cells overexpressing NOX1 or NOX4 were prepared as previously described. After resuspension in sonication buffer (11% sucrose, 120 mM NaCl, 1 mM EGTA in PBS, pH 7.4 for NOX4-expressing cells) or in relax buffer (10 mM Pipes, 3 mM NaCl, 3.5 mM MgCl2, 0.1 M KCl, pH 7.4), cells were broken by sonication and centrifuged (200 g, 10 min). The supernatant was loaded onto a 17/40% (w/v) discontinuous sucrose gradient and centrifuged (150,000 g for 30 min). Membrane fractions were collected and stored at −80°C. ROS production measurements of membranes expressing different NOX subunits was determined as previously described using the Amplex Red method (Invitrogen).

LLC1 tumors = assay: Tumor growth assay, LLC1 injected subcutaneously; assay type: in vivo, mice; details: for tumor vascularization (PECAM-1), vehicle = 100%: 40 mg/kg/day oral for 8 days
Procedure: 5. 10^5 of LLC1 or B16F0 were injected subcutaneously on the back of mice. […] Frozen sections of tumors were stained with anti-PECAM-1 antibody (rat monoclonal, [74]).

B16F0 tumors = assay: Tumor growth assay, B16F0 injected subcutaneously; assay type: in vivo, mice; details: 40 mg/kg/day oral for 8 days
Procedure: 5. 10^5 of LLC1 or B16F0 were injected subcutaneously on the back of mice. Mice were treated with NOX inhibitor, GKT136901 or vehicle (Carboxymethyl-cellulose, CMC) at 40 mg/kg everyday per os or i.p with anti-VEGFR2 antibody (DC101) at 0.8 mg every 2 days. When the control tumor reached approximately 1 cm in length, mice were sacrificed and the tumor excised, weighed and frozen. Frozen sections of tumors were stained with anti-PECAM-1 antibody (rat monoclonal, [74]).

xanthine oxidase = xanthine oxidase (Homo sapiens, UniProt P47989); assay: Pharmacological profiling (Cerep), Table S1
xanthine oxidase, sequence (P47989 whole entry, species assumed): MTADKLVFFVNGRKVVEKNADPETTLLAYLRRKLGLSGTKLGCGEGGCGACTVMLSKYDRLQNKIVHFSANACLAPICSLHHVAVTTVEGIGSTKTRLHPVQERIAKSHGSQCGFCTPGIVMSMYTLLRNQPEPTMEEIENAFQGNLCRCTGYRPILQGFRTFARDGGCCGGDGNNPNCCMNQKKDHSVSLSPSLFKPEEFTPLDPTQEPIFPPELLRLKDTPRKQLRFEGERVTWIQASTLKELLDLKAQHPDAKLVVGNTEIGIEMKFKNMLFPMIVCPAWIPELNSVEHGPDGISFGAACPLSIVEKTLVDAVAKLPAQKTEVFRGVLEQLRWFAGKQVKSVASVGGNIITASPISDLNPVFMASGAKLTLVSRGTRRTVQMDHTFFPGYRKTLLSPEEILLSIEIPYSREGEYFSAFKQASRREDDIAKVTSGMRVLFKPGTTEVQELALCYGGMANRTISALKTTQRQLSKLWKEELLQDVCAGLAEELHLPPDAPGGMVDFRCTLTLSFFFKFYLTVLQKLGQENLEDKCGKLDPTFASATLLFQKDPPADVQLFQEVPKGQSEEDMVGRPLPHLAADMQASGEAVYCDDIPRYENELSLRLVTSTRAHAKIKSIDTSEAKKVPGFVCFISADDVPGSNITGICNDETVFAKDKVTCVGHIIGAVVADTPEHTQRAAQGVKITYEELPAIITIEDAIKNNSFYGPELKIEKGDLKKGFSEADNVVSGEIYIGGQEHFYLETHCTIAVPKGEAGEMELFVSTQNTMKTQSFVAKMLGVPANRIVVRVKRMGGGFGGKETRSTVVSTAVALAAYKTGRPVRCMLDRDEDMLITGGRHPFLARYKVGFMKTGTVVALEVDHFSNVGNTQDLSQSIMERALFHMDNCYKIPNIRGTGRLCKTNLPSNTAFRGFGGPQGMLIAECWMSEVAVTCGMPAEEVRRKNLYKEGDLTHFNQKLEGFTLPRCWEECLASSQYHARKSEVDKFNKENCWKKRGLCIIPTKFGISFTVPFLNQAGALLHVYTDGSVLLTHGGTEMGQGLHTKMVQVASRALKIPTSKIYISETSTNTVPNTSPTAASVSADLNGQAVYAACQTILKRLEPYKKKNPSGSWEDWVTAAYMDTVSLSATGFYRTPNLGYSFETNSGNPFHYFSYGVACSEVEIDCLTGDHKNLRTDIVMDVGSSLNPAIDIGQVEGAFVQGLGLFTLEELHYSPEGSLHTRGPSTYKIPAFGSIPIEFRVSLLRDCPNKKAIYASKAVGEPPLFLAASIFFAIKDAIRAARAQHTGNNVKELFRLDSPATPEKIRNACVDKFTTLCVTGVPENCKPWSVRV

eNos = eNos (Homo sapiens, UniProt P29474); assay: Pharmacological profiling (Cerep), Table S1
MAO-B = MAO-B (Homo sapiens, UniProt P27338); assay: Pharmacological profiling (Cerep), Table S1
MAO-B, sequence (P27338 whole entry, species assumed): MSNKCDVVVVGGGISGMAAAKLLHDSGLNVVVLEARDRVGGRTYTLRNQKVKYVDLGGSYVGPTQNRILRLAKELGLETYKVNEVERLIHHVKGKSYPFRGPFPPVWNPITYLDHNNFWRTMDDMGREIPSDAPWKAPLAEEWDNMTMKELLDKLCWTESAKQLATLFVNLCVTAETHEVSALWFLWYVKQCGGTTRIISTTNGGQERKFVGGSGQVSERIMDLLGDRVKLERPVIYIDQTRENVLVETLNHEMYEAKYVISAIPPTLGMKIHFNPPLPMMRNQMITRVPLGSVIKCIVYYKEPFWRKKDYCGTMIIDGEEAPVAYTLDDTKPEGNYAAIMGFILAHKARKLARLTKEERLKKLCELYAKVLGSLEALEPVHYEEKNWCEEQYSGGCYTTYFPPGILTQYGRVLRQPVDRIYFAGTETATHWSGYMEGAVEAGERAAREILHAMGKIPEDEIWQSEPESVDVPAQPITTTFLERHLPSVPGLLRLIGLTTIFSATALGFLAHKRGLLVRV

PKC a, bI, bII, d = assay: Pharmacological profiling (Cerep), Table S1

With `Cc1c2c(=O)n(-c3ccccc3Cl)[nH]c2cc(=O)n1Cc1ccccn1` [GKT136901] the “extent of inhibition of oxidase activity of NOX1” value (NOX1; Figure S2) was “completely inhibits”, the Ki (NOX1; cell-free, membranes from NOX1 over-expressing cells) was 160 ± 10 nM and the “reduction of vascular area (PECAM-1) compared to vehicle” value (LLC1 tumors; LLC1, 40 mg/kg daily oral from one day after injection) was 59% ±9.3. For the same molecule, the “tumor size smaller compared to vehicle-treated mice” value (LLC1 tumors; LLC1, 40 mg/kg daily oral from one day after injection, one week of treatment) was 34% ±5.8, the “tumor vascularization (PECAM-1), vehicle = 100%” value (LLC1 tumors; LLC1 in PPARα deficient mice) was 129% ±23 and the “tumor vascularization (PECAM-1), vehicle = 100%” value (LLC1 tumors; LLC1 in WT mice) was 65% ±13. For the same molecule, the “reduction of tumor vascularization (PECAM-1), therapeutic treatment” value (LLC1 tumors; established LLC1 tumors, start 8 days after implantation, day 12) was 36% ±16, the “delay of tumor progression (tumor volume), therapeutic treatment” value (LLC1 tumors; established LLC1 tumors, start 8 days after implantation, GKT136901 40 mg/kg per os, DC101 0.8 mg i.p. every 2 days) was 35% ±5.7 and the “tumor vascularization (PECAM-1), vehicle = 100%” value (B16F0 tumors; B16F0 in PPARα deficient mice) was 98% ±24. For the same molecule, the “tumor vascularization (PECAM-1), vehicle = 100%” value (B16F0 tumors; B16F0 in WT mice) was 64% ±14, the “% Inhibition at 10 µM” value (xanthine oxidase) was 5% and the “% Inhibition at 10 µM” value (eNos) was 6%. For the same molecule, the “% Inhibition at 10 µM” value (MAO-B) was 0% and the “% Inhibition at 10 µM” value (PKC a, bI, bII, d) was 0%.
